# Laboratory results: patent publication US12265087B2, “Olfactory receptor as microglia marker and use thereof” (DAEGU GYEONGBUK INSTITUTE OF SCIENCE AND TECHNOLOGY, priority 2019, dated 2025)
# Tests used:
# primary microglia [1] = assay: Boyden chamber chemotaxis of primary microglia; format: cell-based, mouse; details: 100, 300 and 500 μM
# Protocol: In this example, microglia or astrocytes were primarily extracted from the cerebral cortex of E18.5 mouse embryos (Tamashiro et al., 2012), and cultured as described in Example 1. More specifically, the mouse embryonic cortex was collected, stored in a cold supernatant (#14170-112; Thermo Fisher Scientific), and pretreated in a 0.25% trypsin solution (#15090-046; Thermo Fisher Scientific) at 37° C. for 20 minutes. Afterward, cells were plated in a minimum nutrient medium supplemented with 10% FBS (#SH30919.03; Hyclone), 2 mM L-glutamine (#25030-081; Thermo Fisher Scientific), 0.04% glucose (#G7021; Sigma Aldrich), and 1% penicillin/streptomycin (#15140-122; Thermo Fisher Scientific), and filtered through a […] strainer (#352340; Thermo Fisher Scientific). The microglia were plated at a density of 1.2×10^7 cells in a T75 flask coated with poly-D-lysine (#P7280; Sigma Aldrich). […] Purities of the collected microglia and astrocytes were evaluated by qRT-PCR assay and immunocytochemistry using a marker gene and proteins such as Iba-1 and Gfap.
# Chemotaxis was measured using a multi-well Boyden chamber. […] The migrated cells were counted under a light microscope in five randomly selected fixed […] fields (200×) using a scored eyepiece. […]
# primary microglia [2] = assay: mRNA-sequencing of primary microglia (DEGs, GOBP); format: cell-based, mouse; details: Sup MOI 100 or 2-PF 100 μM, 2 hours
# Protocol: After a vehicle (control), Sup (MOI 100) or 2-PF (100 μM) treatment for 2 hours, total RNA was isolated from 2×10^6 cells of primary microglia using a RNeasy miniKit (Qiagen, 74104), and analyzed using a Qubit RNA HS assay kit (Thermo Fisher Scientific, Q32852) according to the manufacturer's standard protocol for quantification. The RNA integrity number (RIN) of each sample was measured using the Agilent Technologies 2100 BioAnalyzer, and the RINs of all samples were 8.5 or more, which is suitable for mRNA sequencing. Full-length cDNA was generated using a SMARTer-Seq v4 Ultra Low input RNA Kit (Clontech, 634888) according to the manufacturer's recommended protocol. The first strand synthesis of cDNA was initiated from 10 ng total RNA by adding 1 μl of 3′ SMART CDS primer II A for 3 minutes at 72° C. […] After PCR, the DNA library was purified using AMPure beads and quality was assessed by an Agilent 2100 Bioanalyzer. A DNA library of each sample was quantified using a KAPA library quantification kit (KAPA Biosystems, KK4854) and then pooled. All libraries were sequenced using an Illumina Hiseq2500 instrument to generate dual-indexed 100-bp paired reads, thereby obtaining an average of 58 million reads for each sample. […] The remaining reads were aligned to the mouse reference genome (GRCm38) using TopHat (Trapnell et al., 2009) with default options. […]
smiles,measurement,setting,value
"CCCCCc1ccco1 [2-PF, 2-pentylfuran]",chemotaxis,primary microglia [1],significantly increased in a concentration-dependent manner
same,genes regulated (mRNA-seq),primary microglia [2],up-regulate genes involved in microglial activation
